This passage reports GI50 and TGI results from PubChem BioAssay (NCI).

The structures appear in SMILES notation. Several values for one entry are separate records, joined by “and”; a condition that tells them apart may be missing. Identical values can stand only once.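 Dose response: 5 concentrations. Exposure: 48 h. Format: 96-well plates. Endpoint: linear interpolation; highest concentration if not reached. At the GI50, growth is halved. The concentration for full growth arrest is given as TGI.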 Where only a bound is given, the exact number is not on record here.

Some test systems named below: SN12C renal; NCI/ADR-RES ovarian; OVCAR-8 ovarian; UACC-257 melanoma; OVCAR-4 ovarian; DU-145 prostate; UO-31 renal; HT29 colon; HS 578T breast; MDA-MB-435.
Common to all, as to assay: NCI anticancer screen, dose series, 48 h

Regarding `CCN(CCNS(C)(=O)=O)c1ccc(N)c(C)c1`, the GI50 in the assay with SN12C renal was 11.4 µM; in the assay on NCI/ADR-RES ovarian it was 11.8 µM; in the assay on OVCAR-8 ovarian, 3.94 µM; with UACC-257 melanoma it was 13.4 µM; with OVCAR-4 ovarian, 6.39 µM; in the assay with DU-145 prostate it was 10.8 µM. For the same compound, the GI50 was 2.58 µM in the assay with UO-31 renal, 6.16 µM in the assay with HT29 colon, 32.9 µM with HS 578T breast and 2.75 µM in the assay on MDA-MB-435. The TGI with SN12C renal worked out at 23.9 µM; with NCI/ADR-RES ovarian, 40.9 µM; with OVCAR-8 ovarian it was 15.2 µM; in the assay on UACC-257 melanoma it was 27.1 µM; in the assay with OVCAR-4 ovarian, 19.4 µM; with DU-145 prostate, 22.8 µM. Also, the TGI in the assay on UO-31 renal was 7.67 µM; with HT29 colon, 28.7 µM; in the assay on HS 578T breast it was over 100 µM; in the assay with MDA-MB-435 it was 6.91 µM.
Regarding `CCn1cc(-c2ccnc3[nH]c(-c4cccc(CN(C)C)c4)cc23)c(-c2ccc(NC(=O)N(C)C)cc2)n1`, the GI50 in the assay with SN12C renal is 1.38 µM and 0.994 µM; in the assay on NCI/ADR-RES ovarian, 23.4 µM and > 10 µM; in the assay with OVCAR-8 ovarian it was 3.33 µM and 3.61 µM; in the assay on UACC-257 melanoma, 4.76 µM and > 10 µM; in the assay on OVCAR-4 ovarian, 0.479 µM and 3.41 µM; in the assay on DU-145 prostate, 3.63 µM and 1.97 µM. Further, the GI50 with UO-31 renal was 2.22 µM and 1.99 µM; in the assay on HT29 colon it was 1.89 µM and 1.4 µM; with HS 578T breast, 1.52 µM and 1.2 µM; in the assay with MDA-MB-435 it was 4.77 µM and > 10 µM. For the same compound, the TGI in the assay on SN12C renal is over 57.8 µM; in the assay on NCI/ADR-RES ovarian, over 100 µM; in the assay with OVCAR-8 ovarian, 23 µM and > 10 µM; in the assay with UACC-257 melanoma, 21.7 µM and > 10 µM; in the assay with OVCAR-4 ovarian, 37.1 µM and > 10 µM; in the assay with DU-145 prostate, 37.8 µM and > 10 µM. The TGI with UO-31 renal was 9.98 µM and > 10 µM; in the assay on HT29 colon it was 22.6 µM and > 10 µM; in the assay with HS 578T breast it was 9.99 µM and 6.9 µM; with MDA-MB-435, 21.4 µM and > 10 µM.
In the case of `Cc1cc(C(=O)CSC(=S)SC(C)(C)C)ccc1Cl`, the TGI was 43.6 µM in the assay with SN12C renal; 42.1 µM in the assay with NCI/ADR-RES ovarian; over 100 µM with OVCAR-8 ovarian; 34.4 µM in the assay on UACC-257 melanoma; over 100 µM in the assay with OVCAR-4 ovarian; over 100 µM in the assay on DU-145 prostate. For the same compound, the TGI with UO-31 renal is 42.6 µM; in the assay on HT29 colon, 69 µM; with HS 578T breast, 82.3 µM; in the assay with MDA-MB-435, 91.1 µM.
On to `COC(=O)c1c(C)cc(OC)c(C/C=C(\C)CCCc2coc(C=C(C)C)c2)c1OC`, for which the TGI in the assay with SN12C renal, with NCI/ADR-RES ovarian, with OVCAR-8 ovarian, in the assay on UACC-257 melanoma, in the assay with OVCAR-4 ovarian and with DU-145 prostate was over 100 µM in each case. The TGI with UO-31 renal is over 100 µM; in the assay with HT29 colon, over 100 µM; in the assay on HS 578T breast, 79.7 µM; with MDA-MB-435, over 100 µM.
Regarding `CC[C@]1(O)C[C@H]2CN(CCc3c([nH]c4ccccc34)C(C(=O)OC)(c3cc4c(cc3OC)N(C)[C@H]3[C@@](O)(C(=O)OC)[C@H](OC(C)=O)[C@]5(CC)[C@@H]6C[C@@H]6CN6CC[C@]43[C@@H]65)C2)C1` (stereo partly specified), the GI50 in the assay with SN12C renal was 0.00838 µM; in the assay on NCI/ADR-RES ovarian, 0.101 µM; in the assay on OVCAR-8 ovarian it was 0.00688 µM; with UACC-257 melanoma, 0.00509 µM; in the assay on OVCAR-4 ovarian it was 0.0266 µM; in the assay on DU-145 prostate, under 0.00143 µM. Besides, the GI50 is 0.076 µM in the assay with UO-31 renal, 0.00258 µM with HT29 colon, 0.00331 µM in the assay on HS 578T breast and under 0.00143 µM in the assay with MDA-MB-435. For the same compound, the TGI in the assay with SN12C renal was over 14.3 µM; with NCI/ADR-RES ovarian, 0.797 µM; with OVCAR-8 ovarian, 0.168 µM; with UACC-257 melanoma, over 8.64 µM; with OVCAR-4 ovarian, over 7.51 µM; in the assay on DU-145 prostate it was over 14.3 µM. In addition, the TGI in the assay with UO-31 renal was 7.66 µM; in the assay on HT29 colon, 0.0867 µM; with MDA-MB-435, 0.00219 µM.
Regarding `C=C(C)C(C1C=C(CCC(C=O)=C(C)C)C(=O)O1)C1(OC)C=C(C)C(=O)O1` (stereo unspecified), the GI50 in the assay on SN12C renal, in the assay on NCI/ADR-RES ovarian, with OVCAR-8 ovarian, in the assay on UACC-257 melanoma, in the assay with OVCAR-4 ovarian and in the assay on DU-145 prostate was over 100 µM in each case. Further, the GI50 in the assay on UO-31 renal is 97.1 µM; with HT29 colon, 57.9 µM; in the assay with HS 578T breast, over 100 µM; in the assay with MDA-MB-435, over 100 µM. The TGI in the assay with SN12C renal, in the assay on NCI/ADR-RES ovarian, in the assay with OVCAR-8 ovarian, in the assay with UACC-257 melanoma, with OVCAR-4 ovarian and in the assay on DU-145 prostate was over 100 µM in each case. Also, the TGI in the assay with UO-31 renal, in the assay with HT29 colon, with HS 578T breast and in the assay with MDA-MB-435 was over 100 µM throughout.
Regarding `COc1ccc2c(=O)oc3c(OC)cc(CCN(C)C)c4c(=O)oc1c2c34`, the TGI in the assay on SN12C renal is 27.7 µM and 15.6 µM; in the assay on NCI/ADR-RES ovarian, 23.5 µM; with OVCAR-8 ovarian, 30.7 µM and 17.2 µM; with UACC-257 melanoma, 38.7 µM and 10.3 µM; with OVCAR-4 ovarian, 12.3 µM and 16.1 µM; with DU-145 prostate it was 15.8 µM. Moreover, the TGI was 31.1 µM and 15.6 µM with UO-31 renal; 27 µM and 12.6 µM in the assay with HT29 colon; 24 µM with HS 578T breast; 16.1 µM in the assay with MDA-MB-435. Moreover, the GI50 with UACC-257 melanoma is 19.7 µM and 3.31 µM; in the assay with OVCAR-4 ovarian, 3.47 µM and 8.43 µM; with UO-31 renal it was 17.3 µM and 8.48 µM; in the assay with HT29 colon, 13.7 µM and 5.51 µM.
For the compound `COc1c2occc2c(N)c2ccc(=O)oc12`, the TGI in the assay on SN12C renal, with NCI/ADR-RES ovarian, in the assay with OVCAR-8 ovarian, with UACC-257 melanoma, in the assay with OVCAR-4 ovarian and in the assay on DU-145 prostate was over 100 µM throughout. In addition, the TGI in the assay on UO-31 renal, in the assay on HT29 colon, in the assay with HS 578T breast and in the assay on MDA-MB-435 was over 100 µM each time.
As for `Nc1nc(Cl)nc2c1ncn2C1CC(O)C(CO)O1` (stereo unspecified), the TGI in the assay on SN12C renal was over 100 µM; with NCI/ADR-RES ovarian, over 100 µM; in the assay with OVCAR-8 ovarian it was over 100 µM; in the assay on UACC-257 melanoma it was 40.4 µM; in the assay on OVCAR-4 ovarian it was over 100 µM; in the assay with DU-145 prostate it was over 100 µM. Further, the TGI in the assay with UO-31 renal is 8.76 µM; in the assay with HT29 colon, over 100 µM; with HS 578T breast, over 100 µM; with MDA-MB-435, over 100 µM. In addition, the GI50 with DU-145 prostate is 1.81 µM; in the assay on HS 578T breast, over 100 µM; in the assay with MDA-MB-435 it was 0.54 µM.
With `COc1cc2c3c(n(C)c(=O)c2cc1OC)-c1cc2c(cc1C3=O)OCO2`, the TGI with SN12C renal, with NCI/ADR-RES ovarian, with OVCAR-8 ovarian, in the assay on UACC-257 melanoma, in the assay with OVCAR-4 ovarian and in the assay on DU-145 prostate was over 100 µM in each case. For the same compound, the TGI in the assay with UO-31 renal, in the assay on HT29 colon, in the assay with HS 578T breast and in the assay on MDA-MB-435 was over 100 µM each time.
For `O=[N+]([O-])c1cccnc1N=Nc1c(O)[nH]c2ccccc12`, the TGI with SN12C renal is 86.5 µM; with NCI/ADR-RES ovarian, over 100 µM; in the assay on OVCAR-8 ovarian, over 100 µM; with UACC-257 melanoma, 44.6 µM; in the assay on OVCAR-4 ovarian it was 73 µM; in the assay with DU-145 prostate, 29.6 µM. The TGI with UO-31 renal is 81.2 µM; in the assay on HT29 colon, 26 µM; in the assay with HS 578T breast, over 100 µM; in the assay on MDA-MB-435 it was over 100 µM.
